Reference: publication PMC7570567, “Attempts to Target Staphylococcus aureus Induced Osteomyelitis Bone Lesions in a Juvenile Pig Model by Using Radiotracers” (Molecules, 2020)
Where a SMILES comes first, the peptide text is derived from it. Bridges are numbered along the chain shown (N, C = ends). The star is where a group is joined. DOTA = O=C(O)CN1CCN(CC(=O)O)CCN(CC(=O)*)CCN(CC(=O)O)CC1; AEEA = NCCOCCOCC(=O)O

How the values were obtained:
[1] = system: Staphylococcus aureus induced osteomyelitis (OM) lesions; experiment: Static PET/CT tracer uptake in S. aureus induced osteomyelitis lesions, juvenile pig model; conditions: for Standard uptake values (SUV) in OM lesions: static whole-body PET/CT about 1 h after i.v. tracer injection, day 6-7 after S. aureus S54F9 inoculation
Text: (§1) Fifteen domestic pigs, all clinically healthy, specific pathogen-free Danish Landrace Yorkshire cross-bred female pigs aged 8–9 weeks weighing 18.3–24.5 kg, were purchased from local commercial pig farmers. After at least one week of acclimatization, the pigs fasted over-night. Then they were premedicated with s-ketamine (Pfizer, Ballerup, Denmark) and midazolam (B. Braun Medical, Frederiksberg, Denmark) intramuscularly and anesthetized with propofol (B. Braun Medical, Frederiksberg, Denmark) intravenously. Finally, they were inoculated with a well-characterized porcine strain of S. aureus S54F9 (approximately 10,000 CFU/kg body weight) into the femoral artery of the right hind limb to induce OM in that limb, as described elsewhere. […] The pigs were all treated with 30–45 µg/kg buprenorphine (Indivior, Berkshire, United Kingdom) intramuscularly thrice daily from the time before inoculation and until scanning at day 6 and 7 after inoculation. After scanning, pigs were euthanized with an overdose of pentobarbitone (Scan Vet Animal Health, Fredensborg, Denmark) while still under anesthesia. Humane endpoints were: anorexia for more than 24 h, superficial respiration, the inability to stand up, or signs of systemic infection. […] The environment was characterized by a room temperature of 20 °C, relative humidity of 51–55%, 12 h in light/12 h in dark cycles, an exchange of air at least eight times per hour. Pigs were fasted overnight before anesthesia.
(§2) Osteomyelitis was verified by CT imaging, necropsy, histology, and/or bacterial cultivation.
(§3) The average injected activity was a median of 760 MBq (range 348–848 MBq) of [^68Ga]Ga-DOTA-K-A9, corresponding to ~17–46 MBq/kg and median 475 MBq (range 65–500 MBq) of [^68Ga]Ga-DOTA-GSGK-A11, corresponding to ~3–23 MBq/kg. PET was performed median ~60 min (60–61min) after injection of [^68Ga]Ga-DOTA-K-A9 (pigs 4–6, Table 1) and ~62 min (62–62 min) after injection of [^68Ga]Ga-DOTA-GSGK-A11 (pigs 7–8, Table 1) in the jugular vein.
(§4) Fluoride-18 was produced via the ^18O (p,n) ^18F nuclear reaction using a cyclotron. The target content was passed through a QMA-light Sep-Pak (Waters, Hedehusene, Denmark) to trap F-18. The solution was washed with 10 mL sterile water for injection (10 mL) to remove any residual [^18O]H2O and then dried with an argon stream. [^18F]NaF was set free by eluting the QMA Sep-Pak with 10 mL NaHCO3 and 10–20 mL air into the product vial. The average injected activity was as median 184 MBq (range 165–196 MBq), corresponding to ~8–10 MBq/kg. The PET was performed ~57 min (33–78 min) after injection of [^18F]NaF (pigs 9–13, Table 1).
(§5) The average injected activity was median 117 MBq (range 109–120 MBq), corresponding to ~5–6 MBq/kg.
(§6) The average injected activity was as median 178 MBq (range 126–253 MBq), corresponding to ~8–12 MBq/kg. The PET was performed ~72 min (60–126 min, early scan) and 139 min (118–186 min, late scan) after injection of [^68Ga]Ga-DOTA-Siglec-9 (pigs 1–3 and 12–15, Table 1).
(§7) ^18F were produced at the PET Center Aarhus using either a PETtrace 800 series cyclotron (GE Healthcare, Uppsala, Sweden) or a Cyclone 18/18 cyclotron (IBA, Louvain La Neuve, Belgium). [^18F]FDG was produced by a standard procedure applying a GE Healthcare MX Tracerlab synthesizer, Mx cassettes supplied by Rotem Industries (Arava, Israel), and chemical kits supplied by ABX GmbH (Radeberg, Germany). […] The median injected activity was 125 MBq (range 94–497 MBq), corresponding to ~5–24 MBq/kg. The PET was performed ~61 min (50–76 min) after injection of [^18F]FDG (pigs 1–15, Table 1).
(§8) The pigs were scanned at locations; Aalborg and Aarhus PET Centers. […] They were in propofol anesthesia and mechanically ventilated throughout the scan. Reflexes, pulse, oxygen saturation, and body temperature were monitored.

[2] = system: S. aureus inoculation abscess / soft tissue infection; experiment: PET uptake in infected soft tissue (inguinal inoculation abscess, lymph node) of pigs
Text: as §1, §6, §7, §8

[3] = Static PET/CT tracer uptake in S. aureus induced osteomyelitis lesions, juvenile pig model; conditions: pig, in vivo, iv, Standard uptake values (SUV) in OM lesions
Text: as §1, §2, §3, §4, §5, §6, §7, §8

[4] = Whole-body PET biodistribution and excretion of tracers in pigs (MIPs); type: in vivo, pig
Text: Reflexes, pulse, oxygen saturation, and body temperature were monitored. […] In the present study, only the whole-body static PET/CT scans are presented.

[5] = system: vascular adhesion protein 1, VAP-1; conditions: cited from earlier work
Text: The PET tracer [^68Ga]Ga-DOTA-Siglec-9 binds to a protein involved in leukocyte extravasations (vascular adhesion protein 1, VAP-1). Only recently, we have analyzed the dynamic data. […] However, the distribution volume for the uptake of soft tissue infections was elevated, concluding the tracer has a role for soft tissue infections ...

osteomyelitis lesions = conditions: pigs; cited from earlier work
Text: We have previously used ^99mTc-label […] ([^99mTc]Tc-DPD) to examine bone remodeling in pigs. […] We, therefore, moved on to use [^18F]NaF in the present study because [^18F]NaF though acting through similar uptake mechanisms as [^99mTc]Tc-DPD, [^18F]NaF is supposed to have a two-fold higher uptake in bones and a better sensitivity for metastatic osteoblastic metastases.

Q: For `OC[C@H]1OC(O)[C@H]([18F])[C@@H](O)[C@@H]1O` (stereo partly drawn) [[^18F]FDG, [^18F]-fluorodeoxyglucose], which “Standard uptake values (SUV) in OM lesions” value (shortened to “Standard uptake values (SUV)”) ([1]; pig 1, 3 lesions) is on record?
A: 4–7.3

Q: What about the “Standard uptake values (SUV)” value ([1]; pig 2, 4 lesions) of the same molecule?
A: 2.3–5.9

Q: What about the “Standard uptake values (SUV)” value ([1]; pig 3, 5 lesions) of the same molecule?
A: 2.9–4.5

Q: And the “Standard uptake values (SUV)” value ([1]; pig 4, 2 lesions)?
A: 10.5–16.3

Q: What about the “Standard uptake values (SUV)” value ([1]; pig 5, 3 lesions) of the same molecule?
A: 3.4–9

Q: What about the “Standard uptake values (SUV)” value ([1]; pig 6, 4 lesions) of the same molecule?
A: 4–9.2

Q: And the “Standard uptake values (SUV)” value ([1]; pig 7, 3 lesions)?
A: 3–6.4

Q: What about the “Standard uptake values (SUV)” value ([1]; pig 8, 2 lesions) of the same molecule?
A: 2.4–8

Q: What about the “Standard uptake values (SUV)” value ([1]; pig 9, 4 lesions) of the same molecule?
A: 5.4–5.9

Q: What about the “Standard uptake values (SUV)” value ([1]; pig 10, 3 lesions) of the same molecule?
A: 4.4–5.1

Q: What about the “Standard uptake values (SUV)” value ([1]; pig 11, 5 lesions) of the same molecule?
A: 1–3.9

Q: What about the “Standard uptake values (SUV)” value ([1]; pig 12, 1 lesion) of the same molecule?
A: 6.1

Q: What about the “Standard uptake values (SUV)” value ([1]; pig 13, 2 lesions) of the same molecule?
A: 7.8–10.1

Q: And the “Standard uptake values (SUV)” value ([1]; pig 14, 3 lesions)?
A: 4–7.8

Q: What about the “Standard uptake values (SUV)” value ([1]; pig 15, 1 lesion) of the same molecule?
A: 3.6

Q: What about the “Number of OM lesions in which the tracer accumulated distinguishably” value ([1]; static PET ~61 min after injection, pigs 1-15) of the same molecule?
A: 45 of the 45

Q: What about the “Uptake in hyperplasic medial iliacus lymph node of the infected side compared to the lymph node in the non-infected left hind limb” value ([2]; pig 12) of the same molecule?
A: increased

Q: What about the “Change of activity in the margin of the abscess in the static images” value ([2]; pig 12, static images acquired after 60 min, compared to 10-30 min) of the same molecule?
A: increased slightly

Q: Which results are given for `CC(C)C[C@@H]1NC(=O)CNC(=O)[C@H](CCCNC(=N)N)NC(=O)[C@H](Cc2c[nH]c3ccccc23)NC(=O)[C@H](CO)NC(=O)[C@H](CC(C)C)NC(=O)[C@H](CO)NC(=O)[C@H](CC(C)C)NC(=O)[C@H](CCCNC(=N)N)NC(=O)[C@H](C)NC(=O)[C@@H](NC(=O)COCCOCCNC(=O)CN2CCN(CC(=O)O)CCN(CC(=O)O)CCN(CC(=O)O)CC2)CSSC[C@@H](C(=O)N2CCC[C@H]2C(=O)N[C@@H](CO)C(=O)N[C@@H](CCCCN)C(N)=O)NC(=O)[C@H](CC(C)C)NC(=O)[C@H]([C@@H](C)O)NC1=O` [[^68Ga]Ga-DOTA-Siglec-9, metal not drawn] ({DOTA-AEEA}-CARLSLSWRGLTLCPSK-NH2; disulfide 1-14; N-terminus and C-terminus assumed)?
A: SUV [3]: 1.3 SUV; Tracer accumulation in porcine OM lesions (in words) ([1]; pig, in vivo): no tracer activity; Distribution of the tracer in the body outside OM lesions ([4]; pig, in vivo): accumulated in dorsocaudal parts of both lungs; Uptake in the margin of an inguinal abscess adjacent to the S. aureus inoculation site ([2]; pig 12, images acquired 10 to 30 min after tracer injection): marked; Change of activity in the margin of the abscess in the static images ([2]; pig, in vivo): decreased; Distribution volume for the uptake of soft tissue infections ([5]; pig, in vivo): elevated; Metabolism of the tracer in vivo ([5]; pig, in vivo): metabolized very quickly; Uptake in OM ([5]; pig, in vivo): no increased; Kinetics of uptake ([5]; pigs, modeled with the rev2TCM (4 k-parameters)): reversible kinetics

Q: With “^99mTc-label methylene diphosphate [[^99mTc]Tc-DPD]” as the molecule, how does the “Tracer uptake in the osteomyelitis lesions” value (osteomyelitis lesions) read?
A: did not observe any tracer uptake

Q: Which “Standard uptake values (SUV)” value ([1]; pig 9, 4 lesions) does the source give for `[18F-].[Na+]` [[^18F]NaF] here?
A: 9.2–13.6

Q: What about the “Standard uptake values (SUV)” value ([1]; pig 10, 3 lesions) of the same molecule?
A: 15.2–17

Q: What about the “Standard uptake values (SUV)” value ([1]; pig 11, 5 lesions) of the same molecule?
A: 5.7–19.2

Q: What about the “Standard uptake values (SUV)” value ([1]; pig 12, 1 lesion) of the same molecule?
A: 19.8

Q: And the “Standard uptake values (SUV)” value ([1]; pig 13, 2 lesions)?
A: 7.8–17.6

Q: And the “Tracer accumulation in porcine OM lesions (in words)” value ([1]; static PET, K-A9 9 lesions, GSGK-A11 5, NaF 15, ubiquicidin 12, Siglec-9 19 lesions (early and late images))?
A: no accumulation

Q: And the Route of excretion ([4]; pigs, whole-body PET, maximum intensity projections)?
A: excreted by the kidneys

Q: What about the “Distribution of the tracer in the body outside OM lesions” value ([4]; pigs, whole-body PET/CT) of the same molecule?
A: distributed to the growth zones of the bones
